Experimental data taken from patent US8404225B2, “Contact sex pheromone component of the Emerald Ash Borer Agrilus planipennis Fairmaire (Coleoptera: Buprestidae)” (National Research Council of Canada, priority 2008, dated 2013).

Legend:
[1] = test system: brown Spruce Longhorn Beetle (BSLB); details: inventors' soon to be published research; cited from earlier work
[2] = test system: feral EAB males (Agrilus planipennis); assay: Behavioral field bioassay with dummy females (feral male contact and mating behaviour); format: in vivo
Protocol: Preparation of dummy females. A total of 78 EAB females that emerged from 10-15 Jul. 2008 were reared for the field bioassay. Female EAB were reared in the quarantine facilities, as described above, until the age of 14 days, when they were frozen. Prior to the field bioassay, females were removed from the freezer and thawed for 2-3 h. For 52 of the females, each female was individually rinsed in 1 ml of hexane for about 2 min. Females were then allowed to dry for a minimum of 30 min before being rinsed again. Females were rinsed a total of three times for 2 min each time and left to dry overnight after the final rinsing. All 78 females were then individually pinned through the right elytra at its base; the heads of the pins were then snipped off such that the end of the pin was only about 1 mm above the surface of the female's body and thus would not interfere with approaches by feral male EAB. Twenty-six of the rinsed females were then treated with 1 μl of racemic 9-methyl pentacosane (ca. 5 mg/ml; one female equivalent), in solution with hexane, and allowed to dry. This divided the 78 females into three treatment groups (unwashed, washed, and washed then treated). The treatment groups were indicated by pinning a small paper insect ‘point’ underneath the female that was not visible from above. The points were colored white (unwashed), yellow (washed) or blue (washed then treated). […] Females were kept at 3-4° C. in a fridge for 2 days until used in the bioassay and were transported to the field in a cooler.
Behavioral field bioassay. The field bioassay was conducted from 7-11 Jul. 2008 at a site about 1.8 km northeast of Port Lambton, ON (42° 40.16′ N, 82° 29.56′ W). […] Dummy females were pinned to foliage on epicormic shoots of infested ash trees, growing from the base of the tree up to about 1.5 m above the ground. Females were placed and removed from foliage by grasping the pin underneath the female with tweezers and were never touched directly to avoid cross-contamination. Trees were chosen based on the presence of both epicormic shoots and feral EAB males on the foliage. Dummy females were placed in a triangle shape in groups of three (one of each treatment) about 20-30 cm apart. All females were pinned on south-facing foliage so that they would be in direct sunlight. From nine to 21 females were set up at different times on different trees, based on the amount of foliage available.
Observations of dummy females began once all females were established on the foliage, and lasted for about 1 h per observation session with breaks of 5-10 min in between observation sessions. We recorded the time of arrival of each male observed to land on a female and then the time of departure for that same male to obtain its total time spent in contact with a given female. The locations of the various treatments were not recorded, so the observations on time spent in contact by males was collected by observers who were unaware of the treatment. The treatment group (unwashed, treated, washed) was then recorded by checking for the presence of the colored insect point under the female's abdomen after the male had flown away. […]
The amount of time individual males spent in contact, and the percentage of that time spent attempting to mate, with females of the three different treatments were analyzed by one-way ANOVA after logarithmic transformation of data to meet the assumptions of normality of data and equality of variance; means were compared using the Holm-Sidak test. […]

Structure (SMILES)	activity as a contact sex pheromone [1]	number of wild males landing on females ([2]; hexane-washed freeze-killed females treated with 1 μl racemic 9-methyl pentacosane (ca. 5 mg/ml; one female equivalent), field, about 40 h of observation)	percentage of contact time spent attempting to mate ([2]; subset of feral males (n=7 observations), one figure printed for unwashed and 9-Me-C25-treated females together, washed females about 20%)	contact and copulatory activity after reapplication to hexane-rinsed females ([2]; synthetic 9-Me-C25 reapplied, field bioassays)	time males spent on treated females compared with washed females ([2]; treated (n=27 observations) vs hexane-washed females (n=43), t=3.817, P=0.00004)	time males spent on treated females compared with unwashed females ([2]; treated (n=27 observations) vs unwashed females (n=36), t=0.138, P=0.89)
CCCCCCCCCCCCCC[C@@H](C)CCCCCCCCCC (single isomer, unassigned) [11S-enantiomer]	demonstrated activity	–	–	–	–	–
CCCCCCCCCCCCCCCCC(C)CCCCCCCC (racemic) [9-Me-C25, 9-methyl pentacosane]	–	27	60%-70%	restored almost all contact and copulatory activity	significantly longer	slightly, but not significantly, less
